We go through 14 molecules from PubChem BioAssay (NCI).

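Interpolation was linear, between the two tested concentrations surrounding the appropriate level; five concentrations were tested over 48 hours in 96-well plates. TGI is the concentration that stops growth completely.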

What all share (test): NCI anticancer screen, dose series, 48 h
Assay [1] relates to COLO 205 colon.
Assay [2] deals with IGROV1 ovarian.
For assay [3], the system named is MDA-MB-231 breast.
Assay [4] has as its system MDA-N.
In assay [5] the test system is NCI-H460 lung.
The subject of assay [6] is OVCAR-5 ovarian.
Assay [7] concerns SF-539 CNS.
For assay [8], the system named is SK-MEL-2 melanoma.
In assay [9] the test system is SNB-75 CNS.
Assay [10] has as its system SNB-19 CNS.

Regarding `COC(OC)[C@@H]1OC[C@@H](O)[C@@H]1n1cnc2c(N)ncnc21`, the TGI in assay [1], in [2], in assay [3], in assay [4], in assay [5] and in [6] was above 100 µM in each case. The TGI in assay [7], in [8] and in assay [9] was above 100 µM throughout.
On to `CCCC(CCN)(CCN)[N+](=O)[O-]`, for which the TGI in assay [1], in assay [2], in [3], in assay [4], in assay [5] and in assay [6] was above 100 µM in each case. For the same molecule, the TGI in [7], in [8], in assay [10] and in [9] was above 100 µM each time.
With `C[Si](C)(C)C1=C([Si](C)(C)C)C(Cl)(Cl)C1=O`, the TGI in assay [1] is 4.87 µM; in assay [2], 16.1 µM; in [3], 7.85 µM; in assay [4] it was 5.39 µM; in [5] it was 32.2 µM; in assay [6], 20 µM. The TGI in [7] amounted to 12.7 µM; in [8], 34.6 µM; in assay [10], 36.5 µM; in [9] it was 24.9 µM.
As for `C[C@@H]1S[C@H](c2c(Cl)cccc2Cl)N2Cc3ccccc3N=C12`, the TGI in assay [1], in assay [2], in assay [3], in [4], in [5] and in assay [6] was above 100 µM throughout. Also, the TGI in [7], in assay [8], in assay [10] and in [9] was above 100 µM throughout.
`CCN(CC)c1ccc(/C=C/C=C2C(=O)NC(=S)NC2=O)cc1`: the TGI is above 100 µM in assay [1]; above 100 µM in assay [2]; above 78.6 µM in assay [3]; above 61.6 µM in assay [4]; above 100 µM in assay [5]; above 100 µM in [6]. The TGI was 36.6 µM in assay [7], above 100 µM in assay [8], above 100 µM in [10] and above 100 µM in assay [9].
For the molecule `O=C(Nc1ccccc1)c1cc(S(=O)(=O)N2CCNNC2=O)c(S)cc1Cl`, the TGI in [1] was above 100 µM; in assay [2], above 100 µM; in assay [3], 95 µM; in assay [4] it was above 100 µM; in assay [5] it was above 100 µM; in [6] it was above 100 µM. The TGI in assay [7], in assay [8], in [10] and in assay [9] was above 100 µM in each case.
Take `Cc1ccccc1NC(=O)Cc1csc2[n+]1C(=O)/C(=C/c1ccc([N+](=O)[O-])cc1)S2`: the TGI in assay [1] was above 100 µM; in [2], above 100 µM; in [3] it was above 100 µM; in [4], above 100 µM; in assay [5], 88 µM; in assay [6], above 100 µM. The TGI is above 100 µM in assay [7], above 100 µM in [8], above 100 µM in assay [10] and 63.1 µM in assay [9].
In the case of `CC1(C)CC(=O)C2=C(C1)OC1=C(CC(C)(C)CC1=O)C2c1ccccc1[N+](=O)[O-]` (stereo not drawn), the TGI in assay [1], in assay [2], in assay [3], in [4], in assay [5] and in assay [6] was above 100 µM throughout. The TGI in assay [7], in assay [8], in assay [10] and in assay [9] was above 100 µM in each case.
Consider `c1cnc(N2CCN(Cc3c[nH]c4ccccc34)CC2)nc1`, for which the TGI was 67.6 µM in [1]; above 100 µM in assay [2]; above 100 µM in assay [3]; above 100 µM in assay [4]; above 100 µM in assay [5]; above 100 µM in assay [6]. The TGI in assay [7] was 67 µM; in assay [8], 31.4 µM; in [10], above 100 µM; in assay [9] it was above 100 µM.
`CCn1c(SCC(=O)NNC(=S)NC)nc2ccccc2c1=O`: the TGI in assay [1] was above 100 µM; in assay [2] it was above 100 µM; in assay [3], above 100 µM; in assay [4] it was above 100 µM; in assay [5], 45.7 µM; in assay [6], above 100 µM. Besides, the TGI in [7], in [8], in assay [10] and in assay [9] was above 100 µM throughout.
For the molecule `COc1cc(N(Cc2ccc3oc(=O)c(-c4ccccc4)nc3c2)Cc2ccc3oc(=O)c(-c4ccccc4)nc3c2)cc(OC)c1OC`, the TGI in [1], in assay [2], in [3], in [4], in assay [5] and in assay [6] was above 10 µM each time. Moreover, the TGI in [7], in [8], in assay [10] and in assay [9] was above 10 µM in each case.
Take `C[C@H](C/C=C/C(C)(C)O)[C@H]1CC[C@@]2(C)[C@@H]3CC[C@H]4C(C)(C)[C@@H](O)CC[C@@]45C[C@@]35CC[C@]12C`: the TGI in assay [2] is 48.9 µM; in [3], 33.2 µM; in [4], above 100 µM; in assay [5] it was 54.2 µM; in assay [6], 38.8 µM; in assay [7], 30.8 µM. In addition, the TGI was 37.7 µM in assay [8], 54.9 µM in assay [10] and 52.5 µM in assay [9].
Turning to `CCOc1cc(NC(C)=O)ccc1C(=O)NN1C(=O)CSC1c1ccccc1` (stereo not drawn), the TGI in [1], in assay [2], in [3], in [4], in assay [5] and in [6] was above 100 µM in each case. Moreover, the TGI in [7], in assay [8], in assay [10] and in [9] was above 100 µM throughout.
For the molecule `CN(C)c1cccc(NC2=NCCO2)c1`, the TGI in [1] is 41.3 µM; in assay [2], above 100 µM; in [3] it was above 100 µM; in assay [4], 32.8 µM; in assay [5], above 100 µM; in assay [6], above 100 µM. Further, the TGI in assay [7] is above 100 µM; in [8] it was 48.7 µM; in assay [10], above 100 µM; in assay [9], above 100 µM.
